Laboratory results reported in patent US6420570B1, “Psoralen compounds” (priority 1993, dated 2002).
Counter-ions that a name gives are not always drawn.

How the values were obtained:
[1] = tested on: TA1537; assay: Ames assay, dark mutagenicity, strain TA1537; conditions: TA1537 −S9; 10 μg/plt
Protocol: (§1) In this example the compounds of the present invention are tested for their dark mutagenicity using an Ames assay. The procedures used for the Salmonella mutagenicity test as described in detail by Maron and Ames were followed exactly. Maron, D. M. and B. N. Ames, Mutation Research 113:173 (1983). A brief description for each procedure is given here. The tester strains TA97a, TA98, TA100, TA102, TA1537 and TA1538 were obtained from Dr. Ames. TA97a, TA98, TA1537 and TA1538 are frameshift tester strains. TA100 and TA102 are base-substitution tester strains. Upon receipt each strain was cultured under a variety of conditions to confirm the genotypes specific to the strains.
(§2) The first tests done with the strains were to determine the range of spontaneous reversion for each of the strains. With each mutagenicity experiment the spontaneous reversion of the tester strains to histidine independence was measured and expressed as the number of spontaneous revertants per plate. This served as the background controls.
(§3) For all experiments, the pre-incubation procedure was used. In this procedure one vial of each tester strain was thawed and 20 μL of this culture was added to 6 mL of Oxoid Nutrient Broth #2. This solution was allowed to shake for 10 hours at 37° C. In the pre-incubation procedure, 0.1 mL of this overnight culture was added to each of the required number of sterile test tubes. To half of the tubes 0.5 mL of a 10% S-9 solution containing Aroclor 1254 induced rat liver extract (Molecular Toxicology Inc., Annapolis, MD), and MgCl2, KCl, glucose-6-phosphate, NADP, and sodium phosphate buffer (Sigma, St. Louis. Mo.) were added. To the other half of the tubes 0.5 mL of 0.2M sodium phospate buffer, pH 7.4, was used in place of the S-9 mixture (the -S9 samples) Finally 0.1 mL of the test solution containing either 0.0.1, 0.5, 1, 5, 10, 50, 100, 250, or 500 μg/mL of the test compound was added. The 0.7 mL mixture pre-incubated while shaking for 20 minutes at 37° C. After shaking, 2 mL of molten top agar supplemented with histidine and biotin were added to the 0.7 mL mixture and immediately poured onto a minimal glucose agar plate (volume of base agar was 20 ml.). The top agar was allowed 30 minutes to solidify and then the plates were inverted and incubated for 44 hours at 37° C. After incubation the number of revertant colonies on each plate were counted. […] (“n” represents the number of replicates performed for each data point.)
(§4) Maron and Ames (1983) describe the conflicting views with regard to the statistical treatment of data generated from the test.

[2] = tested on: R17; assay: R17 bacteriophage inactivation screen, varying compound concentration; assay type: cell-based; conditions: for R17 Log Kill 8 uM / R17 Log Kill 16 uM / R17 Log Kill 32 uM: Table 5, starting titer approx. 7.2 logs
Protocol: The assay used to predict pathogen inactivation efficiency and to determine nucleic acid binding of the photoreactive binding compounds of the present invention was that in which a bacteriophage, R17, in solution with the desired substrate was irradiated. The ability of the phage to subsequently infect bacteria and inhibit their growth was measured. The bacteriophage was selected for its relatively accessible nucleic acid such that the culture growth inhibition would accurately reflect nucleic acid damage by the test compounds. The bacteriophage assay for nucleic acid binding to test compounds offers a safe and inexpensive procedure to identify compounds likely to display efficient pathogen inactivation. […] An aliquot (0.5 mL) was transferred to a 1.5 mL, snap-top polyethylene tube. An aliquot (0.004-0.040 mL) of the test compound stock solution prepared in water, ethanol or dimethylsulfoxide at 0.80-8.0 mM was added to the tube. Compounds were tested at concentrations between 4 μM and 320 μM. (AMT is commercially available from HRI, Inc., Concord, Calif.; 8-MOP is commercially available from Sigma, St. Louis, Mo.). The tubes were placed in a light device as described in EXAMPLE 1 and irradiated for between 1 and 10 minutes. […] To make the dilutions, a 0.100 mL aliquot of the irradiated solution of phage and test compound was added to the first dilution tube of 0.4 mL of media then 0.020 mL of this solution was added to the second tube of 0.5 mL medium (1:25). The second solution was then diluted serially (1:25) into the remaining tubes. […] After the top agar hardened, the plates were incubated at 37° C. overnight. The plaque forming units were then counted the following morning and the titer of the phage remaining after phototreatment was calculated based on the dilution factors. The following controls were run: the “phage only” in which phage was not treated with test compound and not irradiated (listed as “starting titer” in the tables below); the “UV only” in which the phage was irradiated in the absence of test compound; and the “dark” control in which the phage/test compound solution was not irradiated before it was diluted and plated.

[3] = tested on: cell-free virus (HIV); assay type: cell-based; conditions: for HIV Log Kill 64 μM / HIV Log Kill 16 μM / HIV Log Kill 32 μM: Table 8, 1 minute irradiation, HIV starting titer approximately 5 logs; for HIV inactivation activity compared with AMT: concentrations of 64 μM of compound or higher
Protocol: Pathogen inactivation efficiency of several compounds of the present invention was evaluated by examining the ability of the compounds to inactivate cell-free virus (HIV). Inactivation of cell-free HIV was performed as follows.
As in the R17 assay, small aliquots of the compounds listed in TABLES 8 and 9, below, at the concentrations listed in the table, were added to stock HIV-1 to a total of 0.5 mL. The stock HIV (10^5-10^7 plaque forming units/mL) was in DMEM/15% FBS. […] Controls included HIV-1 stock only, HIV-1 plus UVA only, and HIV-1 plus the highest concentration of each psoralen tested, with no UVA. Post irradiation, all samples were stores frozen at −70° C. until assayed for infectivity by a microtiter plaque assay. Aliquots for measurement of residual HIV infectivity in the samples treated with a compound of the present invention were withdrawn and cultured.
Residual HIV infectivity was assayed using an MT-2 infectivity assay. […] The assay medium was 85% DMEM (with a high glucose concentration) containing 100 μg of streptomycin, 100 U of penicillin, 50 μg of gentamicin, and 1 μg of amphotericin B per mL, 15% FBS and 2 μg of Polybrene (Sigma Chemical Co., St. Louis, Mo.) per mL. Test and control samples from the inactivation procedure were diluted in 50% assay medium and 50% normal human pooled plasma. The samples were serially diluted directly in 96-well plates (Corning Glass Works, corning, N.Y.). The plates were mixed on an oscillatory shaker for 30 seconds and incubated at 37° C. in a 5% CO2 atmosphere for 1 to 18 hours. […] After an additional 1 hour of incubation at 37° C. in 5% CO2, 0.075 mL of assay medium containing 1.6% SeaPlaque agarose (FMC Bioproducts, Rockland, me.) and prewarmed to 38.5° C. was added to each well. The plates were kept at 37° C. for a few minutes until several plates had accumulated and then centrifuged in plate carriers at 600×g for 20 minutes in a centrifuge precooled to 10° C. In the centrifuge, cell monolayers formed prior to gelling of the agarose layer. The plates were incubated for 5 days at 37° C. in 5% CO2 and stained by the addition of 0.05 mL of 50 μg/mL propidium iodide (Sigma Chemical Co.) in phosphate-buffered saline (pH 7.4) to each well. After 24 to 48 hours, the red fluorescence-stained microplaques were visualized by placing the plates on an 8,000 μW/cm^2 304 nm UV light box (Fotodyne, Inc., New Berlin, Wis.). The plaques were counted at a magnification of ×20 to ×25 through a stereomicroscope. “n” represents the number of runs for which the data point is an average.

[4] = tested on: TA100; conditions: TA100; with and without S9
Protocol: as §1, §2, §3, §4

[5] = tested on: TA1538; assay: Ames assay, dark mutagenicity, strain TA1538; conditions: TA1538; in the presence of S9
Protocol: as §1, §2, §3, §4

[6] = tested on: Salmonella tester strains; assay: Ames assay, dark mutagenicity, overall over tester strains; conditions: two-fold or greater increase in revertants above background and dose dependent response
Protocol: as §1, §2, §3, §4

[7] = Table 6, 1 minute irradiation = 1.2 J/cm^2, starting titer approx. 7.1 logs
[8] = Table 7, 1 minute irradiation, starting titer approx. 7.1 logs

Nc1c2ccccc2nc2ccccc12 [9-Aminoacridine, reference compound]
revertant colonies per plate, positive control [1]: 284

Cc1oc2c(C)c3oc(=O)cc(C)c3cc2c1CNCCN [Compound 1, 4′-(4-amino-2-aza)butyl-4,5′,8-trimethylpsoralen dihydrochloride]
logs killed in the "dark" control ([2]; Table 3, runs 1-3, at most): ≤ 0.1 logs | R17 inactivation efficiency compared with 8-MOP ([2]; Table 4): much R17 inactivatiotn efficiency than does 8-MOP | R17 Log Kill 8 uM ([2]; 8 uM, 1 minute irradiation): 1.7 log | R17 Log Kill 16 uM ([2]; 1 minute irradiation): 2.8 log | R17 Log Kill 32 uM ([2]; 1 minute irradiation): 5.3 log | LOG TITER ([2]; experiment 1, 32 μM cmpd, 1′ uva, phage only 7.7): <1 log | LOG TITER ([2]; experiment 1, 32 μM cmpd, 10′ uva, phage only 7.7): <1 log | LOG TITER ([2]; experiment 1, compound only (32 μM), not irradiated, phage only 7.7): 7.6 log | LOG TITER ([2]; experiment 2, 3.2 μM cmpd, 1′ uva, phage only 7.8): 6.9 log | LOG TITER ([2]; experiment 2, 3.2 μM cmpd, 10′ uva, phage only 7.8): 6.1 log | LOG TITER ([2]; experiment 2, compound only (3.2 μM), not irradiated, phage only 7.8): 7.7 log | LOG TITER ([2]; experiment 3, 4 μM cmpd, 1′ uva, phage only 7.3): 6.3 log | LOG TITER ([2]; experiment 3, 8 μM cmpd, 1′ uva, phage only 7.3): 5.6 log | LOG TITER ([2]; experiment 3, 16 μM cmpd, 1′ uva, phage only 7.3): 3.9 log | LOG TITER ([2]; experiment 3, compound only (16 μM), not irradiated, phage only 7.3): 7.3 log | HIV Log Kill 64 μM [3]: 2.1 log | mutation in the TA100 strain [4]: only in the absence of S9 | dose at which the only mutagenic response (weak frameshift mutagen) was detected [5]: 5 μg/plate

Cc1oc2c(C)c3oc(=O)cc(C)c3cc2c1COCCN [Compound 2, 4′-(4-Amino-2-oxa)butyl-4,5′,8-trimiethylpsoralen Hydrochloride]
HIV Log Kill 16 μM [3]: 1.4 log | HIV Log Kill 32 μM [3]: 3.8 log | HIV Log Kill 64 μM [3]: >4.5 log | HIV inactivation activity compared with AMT [3]: significantly more active than AMT

Cc1oc2c(C)c3oc(=O)cc(C)c3cc2c1CCN [Compound 3, 4′-(2-aminoethyl)-4,5′,8-trimethylpsoralen Hydrochloride]
R17 Log Kill 8 uM ([2]; 8 uM, 1 minute irradiation): >6.2 log | R17 Log Kill 16 uM ([2]; 1 minute irradiation): >6.2 log | R17 Log Kill 32 uM ([2]; 1 minute irradiation): >6.2 log | R17 log kill 8 uM ([2]; Table 6, 8 uM, 1 minute irradiation = 1.2 J/cm^2, starting titer approx. 7.1 logs): 5.6 log | R17 log kill 16 uM [2, 7]: >6.1 log | HIV Log Kill 32 μM [3]: 2.7 log | HIV Log Kill 64 μM [3]: >3.8 log | HIV inactivation activity compared with AMT [3]: significantly more active than AMT | mutagenicity as defined by the Ames test [6]: no mutagenicity

Cc1oc2c(C)c3oc(=O)cc(C)c3cc2c1CNCCCN [Compound 5, 4′-(5-amino-2-aza)pentyl-4,5′,8-trimethylpsoralen dihydrochloride]
R17 log kill 16 uM [2, 7]: 5.6 log | R17 log kill 32 uM [2, 7]: >6.1 log | R17 log kill 64 uM [2, 7]: >6.1 log | HIV Log Kill 16 μM [3]: 0.9 log | HIV Log Kill 32 μM [3]: 1.3 log | HIV Log Kill 64 μM [3]: >2.6 log

Cc1oc2c(C)c3oc(=O)cc(C)c3cc2c1COCCOCCN [Compound 7, 4′-(7-Amino-2,5-oxa)heptyl-4,5′,8-trimethylpsoralen Hydrochloride]
R17 log kill 16 uM [2, 8]: >6 log | R17 log kill 32 uM [2, 8]: >6 log | R17 log kill 64 uM [2, 8]: >6 log | HIV Log Kill 16 μM [3]: 0.8 log | HIV Log Kill 32 μM [3]: 2.1 log | HIV Log Kill 64 μM [3]: 3.5 log

Cc1oc2c(C)c3oc(=O)cc(C)c3cc2c1COCCOCCNCCCCN.Cl.Cl [Compound 8, 4′-(12-Amino-8-aza-2,5-dioxa)dodecyl-4,5′,8-trimethylpsoralen Dihydrochloride]
HIV Log Kill 16 μM [3]: 1.1 log | HIV Log Kill 32 μM [3]: 1.9 log | HIV Log Kill 64 μM [3]: 3.7 log
